The values that follow are results of earlier work, collected in patent US20040191218A1, “Pharmaceutical compositions and methods for treating cancer” (priority 2001, published 2004).

For data set [1] the following is noted: carboplatin compared with cisplatin.
In a further data set the test system is relapsing ovarian cancer. Conditions: 14 patients with relapsing ovarian cancer, IFN-γ 2 mg/m^2 daily intravenously.
The subject of data set [2] is neoplastic cells including ovarian cancer cells.
A further data set deals with ovarian cancer. As to conditions: intraperitoneal IFN-γ, 108 patients with residual disease at second-look laparotomy.

Consider `[NH2][Pt]1([NH2])[O]C(=O)C2(CCC2)C(=O)[O]1` [carboplatin, diammine(1,1-cyclobutanedicarboxylato) platinum(II)], for which, in data set [1], the neurotoxicity and nephrotoxicity result is “less neurotoxicity and nephrotoxicity than cisplatin”.
For the compound “IFN-γ: lymphokine produced by T-lymphocytes; natural or recombinant interferon gamma”, the Positive responses in the data set with relapsing ovarian cancer is 29%. Besides, in data set [2], the “antiproliferative effects on neoplastic cells” value is given as “exerts antiproliferative effects”. Besides, in the data set with ovarian cancer, the overall response rate was 31%.
